Several values for one entry are separate records, joined by “and”; a condition that tells them apart may be missing. Identical values can stand only once. Like-named read-outs stand apart in the source and are kept apart here.
Experiments:
JAK3 = target: T1, JAK3 (Homo sapiens, UniProt P52333); assay: biochemical
T1 sequence (P52333 1-1124): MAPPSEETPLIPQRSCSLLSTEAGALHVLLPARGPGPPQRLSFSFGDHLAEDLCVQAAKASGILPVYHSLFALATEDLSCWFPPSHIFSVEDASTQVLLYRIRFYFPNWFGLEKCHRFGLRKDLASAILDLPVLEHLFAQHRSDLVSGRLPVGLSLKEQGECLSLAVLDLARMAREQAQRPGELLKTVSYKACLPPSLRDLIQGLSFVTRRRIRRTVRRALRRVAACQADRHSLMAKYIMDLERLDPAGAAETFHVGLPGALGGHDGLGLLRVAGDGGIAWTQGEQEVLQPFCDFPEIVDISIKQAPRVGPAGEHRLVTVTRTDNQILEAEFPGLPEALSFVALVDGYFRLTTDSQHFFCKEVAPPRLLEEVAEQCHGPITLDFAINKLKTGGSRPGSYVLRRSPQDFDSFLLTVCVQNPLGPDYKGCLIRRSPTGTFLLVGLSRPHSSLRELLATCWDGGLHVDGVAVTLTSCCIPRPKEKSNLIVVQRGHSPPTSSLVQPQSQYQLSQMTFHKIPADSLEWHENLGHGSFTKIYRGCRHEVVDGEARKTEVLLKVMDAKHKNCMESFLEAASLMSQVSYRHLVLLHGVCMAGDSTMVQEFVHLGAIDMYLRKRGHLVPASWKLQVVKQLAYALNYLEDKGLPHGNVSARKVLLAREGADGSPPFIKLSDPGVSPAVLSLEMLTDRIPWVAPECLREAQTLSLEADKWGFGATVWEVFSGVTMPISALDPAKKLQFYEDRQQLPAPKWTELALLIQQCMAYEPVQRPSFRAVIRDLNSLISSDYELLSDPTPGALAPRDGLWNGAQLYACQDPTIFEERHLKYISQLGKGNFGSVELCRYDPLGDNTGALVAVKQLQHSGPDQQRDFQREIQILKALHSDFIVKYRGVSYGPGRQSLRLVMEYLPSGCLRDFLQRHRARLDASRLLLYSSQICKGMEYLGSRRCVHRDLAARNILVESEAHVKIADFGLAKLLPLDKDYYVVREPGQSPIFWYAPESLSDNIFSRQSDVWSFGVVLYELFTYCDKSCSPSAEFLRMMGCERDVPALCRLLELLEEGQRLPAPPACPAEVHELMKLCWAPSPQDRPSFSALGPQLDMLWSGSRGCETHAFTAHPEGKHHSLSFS
Description: Reactions were carried out in a kinase buffer containing 100 mM HEPES (pH 7.4), 1 mM DTT, 10 mM MgCl2, 25 mM NaCl, and 0.01% BSA. Substrate concentrations in the assay were 5 μM ATP (200 uCi/μmole ATP) and 1 μM poly(Glu)4Tyr. Reactions were carried out at 25° C. and 1 nM JAK3.
To each well of a 96 well polycarbonate plate was added 1.5 μl of a candidate JAK3 inhibitor along with 50 μl of kinase buffer containing 2 μM poly(Glu)4Tyr and 10 μM ATP. This was then mixed and 50 μl of kinase buffer containing 2 nM JAK3 enzyme was added to start the reaction. After 20 minutes at room temperature (25 C), the reaction was stopped with 50 μl of 20% trichloroacetic acid (TCA) that also contained 0.4 mM ATP. The entire contents of each well were then transferred to a 96 well glass fiber filter plate using a TomTek Cell Harvester. After washing, 60 μl of scintillation fluid was added and ^33P incorporation detected on a Perkin Elmer TopCount.

Colo205 cells = assay: Analysis of cell proliferation and viability; type: cell-based; conditions: Homo sapiens, COLO 205, Colo205 cells, read-out: IC50 value
Aurora-1 (Aurora B) = Aurora-1 (Aurora B) (Homo sapiens, UniProt Q96GD4); assay: Aurora-1 (Aurora B) inhibition assay (radiometric); type: biochemical; conditions: read-out: Aurora B kinase Ki value
Chain of Aurora-1 (Aurora B) (Q96GD4 whole entry): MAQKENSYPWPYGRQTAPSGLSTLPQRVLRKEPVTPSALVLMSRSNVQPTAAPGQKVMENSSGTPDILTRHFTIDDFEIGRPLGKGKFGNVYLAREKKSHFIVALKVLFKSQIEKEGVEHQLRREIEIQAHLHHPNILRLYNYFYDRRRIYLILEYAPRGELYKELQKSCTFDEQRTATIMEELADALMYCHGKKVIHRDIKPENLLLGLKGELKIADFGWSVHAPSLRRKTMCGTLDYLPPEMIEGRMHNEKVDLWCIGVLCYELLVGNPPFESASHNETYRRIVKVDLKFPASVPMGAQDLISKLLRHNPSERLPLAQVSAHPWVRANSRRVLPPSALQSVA
In short: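 Ki values come from non-linear regression of background-corrected initial-rate data. The enzyme was preincubated 10 min at 25° C with compound, then reacted 3 h with 800 μM (final) [γ-^33P]-ATP in HEPES pH 7.5/MgCl2/BSA/glycerol buffer. The reaction was stopped with phosphoric acid and substrate-bound ^33P counted on phosphocellulose.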

| SMILES | Ki (JAK3) [nM] | IC50 (Colo205 cells; incubated for 96 hours) [nM] | Ki (Aurora-1 (Aurora B)) | IC50 (Colo205 cells; incubated for 72 hours) [nM] | Ki (JAK3; read-out: JAK3 Ki value) [nM] |
| --- | --- | --- | --- | --- | --- |
| Cc1cc(Nc2cc(N3CCC3)nc(Sc3ccc(NC(=O)c4ocnc4C)cc3)n2)n[nH]1 [Compound 167] | 10 to 500 | > 1000 | 50 to 2000 nM |  |  |
| Cc1ccc(C(=O)Nc2ccc(Sc3nc(Nc4cc(C)[nH]n4)cc(N4CCC4)n3)cc2)cc1 [Compound 28] | 10 to 500 | 50 to 1000 | 10 to 50 nM |  |  |
| Cc1cc(Nc2cc(N3CC(F)C3)nc(Sc3ccc(NC(=O)c4ccccc4Cl)cc3)n2)[nH]n1 [Compound 60] | 10 to 500 | 50 to 1000 | 10 to 50 nM |  |  |
| COc1ccc(C(=O)Nc2ccc(Sc3nc(Nc4cc(C)n[nH]4)cc(N4CCC4)n3)cc2)cc1 [Compound 117] | 10 to 500 |  | 10 to 50 nM | > 200 |  |
| CCC(=O)Nc1ccc(Sc2nc(Nc3cc(C)n[nH]3)cc(N3CC(C)(O)C3)n2)cc1 [Compound 71] |  | ≤ 50 | 10 to 50 nM |  | 10 to 500 |
| Cc1cc(Nc2cc(N3CCC3)nc(Sc3ccc(NC(=O)c4ccccc4N(C)C)cc3)n2)[nH]n1 [Compound 124] | 500 to 2000 |  | 50 to 2000 nM | > 200 |  |
| Cc1cc(Nc2cc(N3CCC3)nc(Sc3ccc(NC(=O)c4ccc(F)cc4F)cc3)n2)n[nH]1 [Compound 44] |  | 50 to 1000 | 10 to 50 nM |  | 10 to 500 |
| Cc1cc(Nc2cc(N3CC(N4CCCC4)C3)nc(Sc3ccc4ncccc4c3)n2)n[nH]1 [Compound 159] | ≤ 10 |  | ≤ 10 nM | ≤ 30 |  |
| Cc1cc(Nc2cc(N3CCC3)nc(Sc3ccc(NC(=O)c4ccc(Cl)cc4)cc3)n2)n[nH]1 [Compound 54] | 10 to 500 | 50 to 1000 | 50 to 2000 nM |  |  |
| Cc1cc(Nc2cc(N3CCC3)nc(Sc3ccc(C(=O)N4CCCC4)cc3)n2)n[nH]1 [Compound 22] | 10 to 500 | > 1000 | 50 to 2000 nM |  |  |
| Cc1cc(Nc2cc(N3CCC3)nc(Sc3ccc(NC(=O)C(C)CC(F)(F)F)cc3)n2)[nH]n1 (stereo not drawn) [Compound 127] | 500 to 2000 |  | 10 to 50 nM and < 25 nM | 30 to 200 |  |
| Cc1cc(Nc2cc(N3CCC3)nc(Sc3ccc(NC(=O)C(F)(F)F)cc3)n2)[nH]n1 [Compound 158] |  |  | ≤ 10 nM | > 200 | ≤ 10 |
| CCCNC(=O)Nc1ccc(Sc2nc(Nc3cc(C)[nH]n3)cc(N3CCC3)n2)cc1 [Compound 73] |  | > 1000 | 50 to 2000 nM |  | 500 to 2000 |
| Cc1cc(Nc2cc(N3CC(F)(C4CC4)C3)nc(Sc3ccc(-c4ncc(C)o4)cc3)n2)[nH]n1 [Compound 175] | 10 to 500 |  | 50 to 2000 nM | > 200 |  |
| CCNC(=O)c1ccc(Sc2nc(Nc3cc(C)[nH]n3)cc(N3CCC3)n2)cc1 [Compound 20] | 10 to 500 | 50 to 1000 | 10 to 50 nM |  |  |
| Cc1cnc(Nc2cc(N3CCC3)nc(Sc3ccc(NC(=O)C4CC4)cc3)n2)s1 [Compound 4] | 500 to 2000 | 50 to 1000 | 50 to 2000 nM |  |  |
| Cc1cc(Nc2cc(N3CC(C)(O)C3)nc(Sc3ccc(NC(=O)c4ccccc4C(F)(F)F)cc3)n2)[nH]n1 [Compound 115] | ≤ 10 |  | ≤ 10 nM | 30 to 200 |  |
| Cc1cc(Nc2cc(N3CCC3)nc(Sc3ccc(NC(=O)C4CCCCC4)cc3)n2)n[nH]1 [Compound 30] | 10 to 500 | 50 to 1000 | 10 to 50 nM |  |  |
| Cc1cc(Nc2cc(N3CCC3)nc(Oc3ccc(NC(=O)c4ccccc4C(F)(F)F)cc3)n2)[nH]n1 [Compound 134] | 10 to 500 |  | 10 to 50 nM and < 25 nM | 30 to 200 |  |
| CCC(=O)Nc1ccc(Sc2nc(Nc3cc(C4CC4)n[nH]3)cc(N3CC(C)(O)C3)n2)cc1 [Compound 76] | ≤ 10 | 50 to 1000 | ≤ 10 nM |  |  |
| COC1CN(c2cc(Nc3cc(C)n[nH]3)nc(Sc3ccc(NC(=O)c4ccccc4C(F)(F)F)cc3)n2)C1 [Compound 126] |  |  | ≤ 10 nM | 30 to 200 | 10 to 500 |
